Patent publication US8883801B2, “Substituted pyrazolo[1,5-a]pyrimidines as mTOR inhibitors” (Merck Sharp & Dohme Corp., priority 2010, dated 2014)
Like-named read-outs stand apart in the source and are kept apart here.

Assays:
human mTOR enzyme = human mTOR enzyme (Homo sapiens, UniProt P42345); assay: HTRF mTOR enzyme (kinase) assay; format: biochemical; conditions: 5 μM ATP, 0.2 μM GST-S6K, read-out: hMTOR IC50
Procedure: Methods: An HTRF mTOR enzyme assay was developed to assess the compounds' inhibitory activity. The mTOR assay buffer contained 10 mM Hepes (pH 7.4), 50 mM NaCl, […] BSA, 50 mM […], 10 mM MnCl2 and 0.5 mM DTT. […] 20 ng of human mTOR enzyme (<5% pure was preincubated with the compound for 10 minutes followed by the addition of 5 μM ATP and 0.2 μM GST-S6K (Zhang et al., Protein Expression and Purification 46, pp 414-420 (2006)). The reaction was incubated for one hour at 30° C. Anti phospho p70-S6K(Thr389) (˜1.7 ng/well, anti-phospho-p70S6K-cryptate (Pho-p70S6-Kin-K cat#64CUSKAY, from Cisbio)) and anti GST-XL665 (1:1 Ratio with the substrate GST-S6K, anti GST-XL665, cat#61GSTXLB) Cisbio) were added after the reaction was stopped. The plates were read (PHERAstar, BMG) at least 2 hours after adding the anti phospho p70-S6K and the anti GST-XL665.
IC50 DETERMINATIONS: Dose-response curves were plotted from the inhibition data generated, each in duplicate, from 8 point serial dilutions of inhibitory compounds. Concentration of compound was plotted against the HTRF em665/em590 ratio signal. To generate IC50 values, the dose-response curves were fitted to a standard sigmoidal curve and IC50 values were derived by nonlinear regression analysis.

[1] = test system: mTORC2 activity: phosphorylated AKT Ser473 (pAKT S473) in PC3 cells; assay: mTOR target engagement assay, immunofluorescent cell-based, mTORC2 readout; conditions: Homo sapiens, PC-3, 1.5 h, 90 min treatment
Procedure: The target engagement of mTOR kinase inhibitors was evaluated using an immunofluorescent cell-based assay. In this assay, inhibition of mTORC1 activity was measured by the reduction in the level of phosphorylated 4E-BP1Thr37/46 (p4E-BP1 Thr37/46), and inhibition of mTORC2 activity was measured by the reduction of phosphorylated AKTSer473 (pAKT S473).
PC3 cells (prostate tumor cell-line that contains a mutation in the tumor suppressor PTEN, that promotes the phosphorylation and activation of AKT and 4E-BP1) were used in the immunofluorescence assay. PC3 cells were seeded on 384 well plates (black clear bottom, Matrix #4332) overnight. PC3 cells were then treated with 40 μl of the serially diluted test compounds (in 5% fetal bovine serum, F12 medium containing 0.25% DMSO) for ninety minutes at 37° C. The test compound solution was removed, and the plates were washed gently two times with 25 μl phosphate buffered saline (PBS). The cells were fixed by adding 25 μl of Prefer reagent (from Anatech LTD, Cat#414, a glyoxal fixative for fixing proteins within a cell) for sixty minutes followed by three washes with PBS. 5% Goat serum in PBS/0.3% Triton was used to block non-specific binding (60 minutes).
The primary antibodies targeting pAKT S473 and p4E-BP1 Thr37/46 were diluted into PBS/0.3% Triton and incubated with the cells overnight at 4° C. The antibodies targeting pAKTS473 (Cat#4085, Cell signaling) and p4E-BP1 Thr37/46 (Cat#2855, Cell signaling) were used at a 1:100 dilution. Plates were washed three times with PBS/0.1% Tween 20 before adding the secondary antibody at a 1:200 dilution. (goat anti-rabbit containing a fluorescent label, Alexa Fluor 488, Cat#A11008, Invitrogen) in PBS/0.3% Triton for 60 minutes.
Finally, the plates were washed three times with PBS/0.1% Tween 20 and the fluorescent intensity was read using an Analyst HT from Molecular Devices. The fluorescent intensity values from the serially diluted compound treatment group were analyzed using the Xlfit 4 program ([…]) (Formula 205: Y=Bottom+(Top-Bottom)/(1+(IC50/X)^Hillslope) to generate the IC50 value. Where Top is the maximum signal without Compound (+DMSO only) and Bottom represents maximum inhibition. Y is the fluorescence at some compound concentration. The control used to determine the fluorescent intensities for 100% pAKT S473 or 100% phosphorylated p4E-BP1 Thr37/46 were measured from untreated wells that contained only DMSO, instead of test compound.

Chain of human mTOR enzyme (P42345 1360-2549 limits assumed): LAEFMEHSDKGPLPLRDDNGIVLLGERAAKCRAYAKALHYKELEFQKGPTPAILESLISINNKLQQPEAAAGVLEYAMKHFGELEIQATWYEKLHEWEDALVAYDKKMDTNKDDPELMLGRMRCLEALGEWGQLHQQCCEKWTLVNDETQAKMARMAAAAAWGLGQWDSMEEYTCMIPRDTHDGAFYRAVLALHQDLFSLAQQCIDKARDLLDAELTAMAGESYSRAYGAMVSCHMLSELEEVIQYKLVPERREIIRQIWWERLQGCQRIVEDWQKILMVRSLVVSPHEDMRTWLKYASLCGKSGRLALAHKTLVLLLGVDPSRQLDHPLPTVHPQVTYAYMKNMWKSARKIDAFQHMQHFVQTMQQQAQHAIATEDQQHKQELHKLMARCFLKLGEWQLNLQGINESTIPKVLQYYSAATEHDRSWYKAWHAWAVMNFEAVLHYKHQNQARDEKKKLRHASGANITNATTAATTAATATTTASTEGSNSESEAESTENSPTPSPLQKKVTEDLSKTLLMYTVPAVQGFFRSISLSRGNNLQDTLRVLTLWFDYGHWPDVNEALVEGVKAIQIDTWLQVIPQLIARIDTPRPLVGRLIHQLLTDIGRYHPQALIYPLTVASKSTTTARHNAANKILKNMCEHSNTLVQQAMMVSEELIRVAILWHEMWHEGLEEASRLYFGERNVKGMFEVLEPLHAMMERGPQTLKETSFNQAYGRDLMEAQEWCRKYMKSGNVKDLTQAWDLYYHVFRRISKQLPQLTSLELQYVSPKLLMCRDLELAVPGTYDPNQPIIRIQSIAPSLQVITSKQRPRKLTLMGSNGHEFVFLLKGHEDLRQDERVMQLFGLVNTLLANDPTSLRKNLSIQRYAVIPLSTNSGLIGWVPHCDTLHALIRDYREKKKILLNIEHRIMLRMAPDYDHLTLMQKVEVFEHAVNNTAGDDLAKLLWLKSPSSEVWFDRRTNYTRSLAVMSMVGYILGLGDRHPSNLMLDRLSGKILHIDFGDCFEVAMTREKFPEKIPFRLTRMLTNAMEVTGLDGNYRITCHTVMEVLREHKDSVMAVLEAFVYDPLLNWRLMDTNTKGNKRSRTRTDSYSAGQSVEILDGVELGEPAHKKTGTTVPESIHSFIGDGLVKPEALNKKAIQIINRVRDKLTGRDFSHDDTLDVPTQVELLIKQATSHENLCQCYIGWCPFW

SMILES | IC50 (human mTOR enzyme; rated class) [nM] | IC50 ([1]; rated class) [nM] | IC50 (human mTOR enzyme; numeric value) [nM] | IC50 ([1]; numeric value) [nM]
COc1ccc(-c2ccc(-c3cnn4c(N)c(C(C)=O)c(C5CCC(O)(CO)CC5)nc34)cn2)cn1 (single isomer, unassigned) [Compound 146, 1-(7-amino-5-(4-hydroxy-4-(hydroxymethyl)-cyclohexyl)-3-(6′-methoxy-2,3′-bipyridin-5-yl)pyrazolo[1,5-a]pyrimidin-6-yl)ethanone] | 1 to 100 | 2000 to 5000 |  | 
CC(=O)c1c(C2CCC(O)(CO)CC2)nc2c(-c3cnn(-c4cscn4)c3)cnn2c1N (single isomer, unassigned) [Compound 152, 1-(7-amino-5-(4-hydroxy-4-(hydroxymethyl)-cyclohexyl)-3-(1-(thiazol-4-yl)-1H-pyrazol-4-yl)pyrazolo[1,5-a]pyrimidin-6-yl)ethanone] | 1 to 100 | 1000 to 2000 |  | 
C[C@]1(C(=O)O)CC[C@@H](c2nc3c(-c4ccc(-c5ccccc5)nc4)cnn3c(N)c2Br)CC1 [Compound 2, (1S,4S)-4-(7-amino-6-bromo-3-(6-phenylpyridin-3-yl)pyrazolo[1,5-a]pyrimidin-5-yl)-1-methylcyclohexanecarboxylic acid] | 1 to 100 | 2000 to 5000 |  | 
Nc1c(Br)c([C@H]2CC[C@](F)(C(=O)O)CC2)nc2c(-c3ccc(-c4ccccc4)nc3)cnn12 [Compound 3, (1S,4S)-4-(7-amino-6-bromo-3-(6-phenylpyridin-3-yl)pyrazolo[1,5-a]pyrimidin-5-yl)-1-fluorocyclohexane-carboxylic acid] | 1 to 100 | 1000 to 2000 |  | 
Nc1c(Br)c([C@H]2CC[C@@](F)(C(=O)O)CC2)nc2c(-c3ccc(-c4ccccc4)nc3)cnn12 [Compound 4, (1R,4R)-4-(7-amino-6-bromo-3-(6-phenylpyridin-3-yl)pyrazolo[1,5-a]pyrimidin-5-yl)-1-fluorocyclohexane-carboxylic acid] | 1 to 100 | 100 to 1000 |  | 
COCC1(C(=O)O)CCC(c2nc3c(-c4ccc(-c5ccccc5)nc4)cnn3c(N)c2Br)CC1 (centres unmarked) [Compound 5, 4-(7-amino-6-bromo-3-(6-phenylpyridin-3-yl)pyrazolo[1,5-a]pyrimidin-5-yl)-1-(methoxymethyl)-cyclohexane-carboxylic acid] | 1 to 100 | 100 to 1000 |  | 
COC[C@]1(C(=O)O)CC[C@H](c2nc3c(-c4cnc5ccc(F)cc5c4)cnn3c(N)c2Br)CC1 [Compound 7, (1R,4R)-4-(7-amino-6-bromo-3-(6-fluoroquinolin-3-yl)pyrazolo[1,5-a]pyrimidin-5-yl)-1-(methoxymethyl)-cyclohexane-carboxylic acid] | 1 to 100 | 1000 to 2000 |  | 
COC[C@]1(C(=O)O)CC[C@@H](c2nc3c(-c4cnc5ccc(F)cc5c4)cnn3c(N)c2Br)CC1 [Compound 8, (1S,4S)-4-(7-amino-6-bromo-3-(6-fluoroquinolin-3-yl)pyrazolo[1,5-a]pyrimidin-5-yl)-1-(methoxymethyl)-cyclohexane-carboxylic acid] | 1 to 100 | 5000 to 15000 |  | 
CS[C@]1(C(=O)O)CC[C@H](c2nc3c(-c4cnn(-c5ccccc5)c4)cnn3c(N)c2Br)CC1 [Compound 9, (1S,4S)-4-(7-amino-6-bromo-3-(1-phenyl-1H-pyrazol-4-yl)pyrazolo[1,5-a]pyrimidin-5-yl)-1-(methylthio)-cyclohexane-carboxylic acid] | 1 to 100 | 100 to 1000 |  | 
COCCOC[C@]1(C(=O)O)CC[C@H](c2nc3c(-c4ccc(-c5ccccc5)nc4)cnn3c(N)c2Br)CC1 [Compound 11, (1R,4R)-4-(7-amino-6-bromo-3-(6-phenylpyridin-3-yl)pyrazolo[1,5-a]pyrimidin-5-yl)-1-((2-methoxyethoxy)methyl)cyclohexane-carboxylic acid] |  |  | 4.61 | 2030
COCCOC[C@]1(C(=O)O)CC[C@@H](c2nc3c(-c4ccc(-c5ccccc5)nc4)cnn3c(N)c2Br)CC1 [Compound 12, (1S,4S)-4-(7-amino-6-bromo-3-(6-phenylpyridin-3-yl)pyrazolo[1,5-a]pyrimidin-5-yl)-1-((2-methoxyethoxy)methyl)cyclohexane-carboxylic acid] | 1 to 100 | 2000 to 5000 |  | 
CC(=O)c1c(N)n2ncc(-c3ccc(-c4ccccc4)nc3)c2nc1[C@H]1CC[C@](F)(C(=O)O)CC1 [Compound 16, (1S,4S)-(6-acetyl-7-amino-3-(6-phenylpyridin-3-yl)pyrazolo[1,5-a]pyrimidin-5-yl)-1-fluorocyclohexane-carboxylic acid] | 1 to 100 | 1000 to 2000 |  | 
CC(=O)c1c(N)n2ncc(-c3ccc(-c4ccccc4)nc3)c2nc1[C@H]1CC[C@@](F)(C(=O)O)CC1 [Compound 17, (1R,4R)-4-(6-acetyl-7-amino-3-(6-phenylpyridin-3-yl)pyrazolo[1,5-a]pyrimidin-5-yl)-1-fluorocyclohexane-carboxylic acid] | 1 to 100 | 100 to 1000 |  | 

The next lines start with the values.

IC50 (human mTOR enzyme; rated class) [nM] | IC50 ([1]; rated class) [nM] | IC50 (human mTOR enzyme; numeric value) [nM] | IC50 ([1]; numeric value) [nM] | SMILES
1 to 100 | 1000 to 2000 |  |  | COCC1(C(=O)O)CCC(c2nc3c(-c4cnn(-c5ccccc5)c4)cnn3c(N)c2Br)CC1 (centres unmarked) [Compound 6, 4-(7-amino-6-bromo-3-(1-phenyl-1H-pyrazol-4-yl)pyrazolo[1,5-a]pyrimidin-5-yl)-1-(methoxymethyl)-cyclohexane-carboxylic acid]
1 to 100 | 2000 to 5000 |  |  | CS[C@]1(C(=O)O)CC[C@@H](c2nc3c(-c4cnn(-c5ccccc5)c4)cnn3c(N)c2Br)CC1 [Compound 10, (1R,4R)-4-(7-amino-6-bromo-3-(1-phenyl-1H-pyrazol-4-yl)pyrazolo[1,5-a]pyrimidin-5-yl)-1-(methylthio)-cyclohexane-carboxylic acid]
1 to 100 | 5000 to 15000 |  |  | COCCOC[C@]1(C(=O)O)CC[C@H](c2nc3c(-c4cnn(-c5ccccc5)c4)cnn3c(N)c2Br)CC1 [Compound 13, (1R,4R)-4-(7-amino-6-bromo-3-(1-phenyl-1H-pyrazol-4-yl)pyrazolo[1,5-a]pyrimidin-5-yl)-1-((2-methoxyethoxy)methyl)cyclohexane-carboxylic acid]
1 to 100 | 5000 to 15000 |  |  | COCCOC[C@]1(C(=O)O)CC[C@@H](c2nc3c(-c4cnn(-c5ccccc5)c4)cnn3c(N)c2Br)CC1 [Compound 14, (1S,4S)-4-(7-amino-6-bromo-3-(1-phenyl-1H-pyrazol-4-yl)pyrazolo[1,5-a]pyrimidin-5-yl)-1-((2-methoxyethoxy)methyl)cyclohexane-carboxylic acid]
1 to 100 | 100 to 1000 |  |  | COC[C@]1(C(=O)O)CC[C@@H](c2nc3c(-c4ccc(-c5ccccc5)nc4)cnn3c(N)c2C(C)=O)CC1 [Compound 19, (1S,4S)-4-(6-acetyl-7-amino-3-(6-phenylpyridin-3-yl)pyrazolo[1,5-a]pyrimidin-5-yl)-1-(methoxymethyl)-cyclohexane-carboxylic acid]
1 to 100 | 100 to 1000 |  |  | COC[C@]1(C(=O)O)CC[C@@H](c2nc3c(-c4cnn(-c5ccccc5)c4)cnn3c(N)c2C(C)=O)CC1 [Compound 21, (1S,4S)-4-(6-acetyl-7-amino-3-(1-phenyl-1H-pyrazol-4-yl)pyrazolo[1,5-a]pyrimidin-5-yl)-1-(methoxymethyl)-cyclohexane-carboxylic acid]
